Measurements published in patent publication US9198915B2, “Methods involving aldose reductase inhibitors” (The Board of Regents of The University of Texas System, priority 2007, dated 2015).

Experiments:
[1] = test system: NF-κB; test: NF-κB-dependent SEAP reporter assay in TNF-α- or LPS-treated SAEC; format: cell-based, human
Description: SAEC cells (1×10^5 cells/well) were plated in 24-well plates, serum starved in basal medium with AR inhibitor, sorbinil and zopolrestate (20 μM) or carrier for 24 h, and transiently transfected with pNF-κB-secretory alkaline phosphatase (SEAP) construct or control plasmid pTALSEAP DNA (Clontech, Palo Alto, Calif.) using the LipofectAMINE Plus reagent. After 6 hours of transfection medium was replaced with fresh medium and cells were incubated with either TNF-α (2 nM) or LPS (1 μg/mL) or carrier for 48 h. The cell culture medium was then harvested and analyzed for SEAP activity, essentially as described by the manufacturer (Clontech, Palo Alto, Calif.), using a 96-well chemiluminescence plate reader.

[2] = test system: Lewis rats; test: Endotoxin-induced uveitis (EIU): infiltrating cells and total protein in aqueous humor, histopathology; format: in vivo, rat; settings: zopolrestat alone, no LPS
Description: Six to eight-weeks-old male Lewis rats weighing approximately 150-160 g were used in this study (n=6). All animals were kept in the UTMB's Animal Care Center. All the animal studies were conducted in compliance with the ARVO statement for the use of Animals in Ophthalmic and Vision Research. EIU was induced by a subcutaneous injection of Escherichia coli LPS (200 μg) dissolved in phosphate-buffered saline (PBS, pH 7.4). Rats in ART and ETU+ARI groups were injected intraperitoneally with AR inhibitor zopolrestat (25 mg/kg body weight) dissolved in dimethyl-sulfoxide (DMSO) 24 h before and immediately after LPS injection. Rats of control group received carrier (PBS+20% DMSO) injection.
The rats were euthanized after 3, 6, and 24 h after LPS injection and the aqueous humor (AqH) was collected immediately from eye by an anterior chamber puncture using a 30-gauge needle under the surgical microscope. For cell counting, the AqH samples were suspended in an equal amount of Trypan-blue solution, and the cells were counted using a Hemocytometer under a light microscope (Olympus Optical Ltd). The total protein concentration in the AqH samples was measured using a Biorad protein assay kit (Biorad, CA, USA). The AqH samples were stored in ice water until testing, cell counts and total protein concentrations were measured on the day of sample collection. […]

[3] = test system: NF-κB; test: NF-κB-dependent SEAP reporter assay in RW-treated SAEC; format: cell-based, human
Description: The SAEC (1×10^5 cells/well) were plated in 24-well plates, serum-starved in SABM for 24 hours with or without AR inhibitors, sorbinil and zopolrestat (20 μM), and transiently transfected with pNF-κB-secretory alkaline phosphatase (SEAP) construct or control plasmid pTAL-SEAP DNA (Clontech, Palo Alto, Calif.) using the LipofectAMINE Plus reagent. After 6 hours of transfection, medium was replaced with fresh medium and cells were treated with RW (50 μg/mL) for 48 hours. The cell culture medium was harvested, centrifuged and supernatant was analyzed for SEAP activity, essentially as described by the manufacturer (Clontech, Palo Alto, Calif.), using a 96-well chemiluminescence plate reader.

[4] = test system: COX-2, iNOS, Bcl-XL, Bax, cyclin D1, E2F2; test: RW-induced inflammatory, apoptosis and cell cycle proteins in SAEC (Western blot); format: cell-based, human; settings: RW 50 μg/ml, 24 h
Text: Fourty micrograms of cytoplasmic protein extracts, prepared as described earlier were resolved on 10% SDS-PAGE. After electrophoresis, the proteins were electro transferred to a nitrocellulose membrane, blocked with 5% nonfat milk in TBST, and probed with antibodies against COX-2, NOS2, Bcl-xL, Bax, cyclin D1, E2F2 (1:1,000 dilution) for 2 hr. The blot was then washed, exposed to HRP-conjugated secondary antibodies (1:5,000 dilution) for 1 hr, and the antigen-antibody complex was detected by enhanced chemiluminescence (Amersham Pharmacia Biotech, Piscataway, N.J., USA).

[5] = test system: IL-6, IL-8 and Cox-2 mRNA; test: TNF-α- and LPS-induced IL-6, IL-8 and Cox-2 mRNA in SAEC (RT-PCR); format: cell-based, human; settings: TNF-α 2 nM or LPS 1 μg/ml, 6 h
Description: The SAEC were grown in 6-well plates at a density of approximately 3.0×10^5 cells/well. After approximately 80% confluence cells were serum-starved in the presence or absence of sorbinil (20 μM) or carrier for 24 h and then stimulated with either TNF-α (2 nM) or LPS (1 μg/mL). Total RNA from SAEC was isolated by using RNeasy kit (Qiagen) as per supplier's instructions. Aliquots of RNA (0.5-1.0 μg) isolated from each sample were reverse transcribed with Omniscript and Sensiscript reverse transcriptase one-step RT-PCR system with HotStar Taq DNApolymerase (Qiagen) at 55° C. for 30 min followed by PCR amplification. The oligonucleotide primer sequences were as follows: 5′-[…]-3′ (SEQ ID NO:3) (sense) and 5′-[…]-3′ (SEQ ID NO:4) (antisense) for IL-6; 5′-[…]-3′ (SEQ ID NO:5) (sense) and 5′-TCT […]-3′ (SEQ ID NO:6) (antisense) for IL-8; 5′-TGAAACCCACTCCA AACACAG-3′ (SEQ ID NO:7) (sense) and 5′-[…]-3′ (SEQ ID NO:8) (antisense) for Cox-2; and 5′-[…]-3′ (SEQ ID NO:9) (sense) and 5′-CGTC […]-3′ (SEQ ID NO:10) (antisense) for β-actin. PCR was carried out in a PCR Sprint thermal cycler (Thermo electron corporation, Milford, Mass.) under the following conditions: initial denaturation at 95° C. for 15 min followed by 35 cycles of 94° C. 1 min, 62° C. 1 min, 72° C. 1 min, and then 72° C. 10 min for final extension. […]

O=C(O)Cc1nn(Cc2nc3cc(C(F)(F)F)ccc3s2)c(=O)c2ccccc12 [zopolrestat]
inhibition at 20 µM ([1]; Homo sapiens, SAEC, AR inhibitor 20 μM, TNF-α 2 nM or LPS 1 μg/mL, 48 h, read-out: inhibition of TNF-α- and LPS-induced NF-κB-dependent SEAP activation): > 60% | basal NF-κB-SEAP activity, compound alone ([1]; no TNF-α or LPS): did not affect | infiltration of cells, H&E sections, compound alone [2]: No significant infiltration of cells | inhibition at 20 µM ([3]; Homo sapiens, SAEC, AR inhibitor 20 μM, RW 50 μg/mL 48 hours, read-out: inhibition of RW-induced NF-κB-dependent SEAP activation): > 60% | NF-κB-SEAP activity, compound alone ([3]; no RW): did not affect | RW-induced increase of COX-2 and iNOS protein expression [4]: significantly prevented the increase | prevention of RW-induced increase in expression of cyclin D1 and E2F2 [4]: > 90% | prevention of TNF-α- and LPS-induced increase of Cox-2 mRNA levels [5]: > 60%
